Reference: patent publication US8021686B2, “Lipid-encapsulated polyanionic nucleic acid” (The University of British Columbia, priority 1997, dated 2011)

Experiments:
pKa of amino lipid = assay type: physicochemical
[1] = Assessment of antisense encapsulation (encapsulation efficiency, drug:lipid ratio); assay type: physicochemical
Protocol: drug to lipid ratio: The amount of drug (therapeutic agent) in a defined volume of preparation divided by the amount of lipid in the same volume. This may be on a mole per mole basis or on a weight per weight basis, or on a weight per mole basis. For final, administration-ready formulations, the drug:lipid ratio is calculated after dialysis, chromatography and/or enzyme (e.g., nuclease) digestion has been employed to remove as much of the external therapeutic agent (e.g., nucleic acid) as possible.
encapsulation efficiency: the drug to lipid ratio of the starting mixture divided by the drug to lipid ratio of the final, administration competent formulation. This is a measure of relative efficiency. For a measure of absolute efficiency, the total amount of therapeutic agent (nucleic acid) added to the starting mixture that ends up in the administration competent formulation, can also be calculated. The amount of lipid lost during the formulation process may also be calculated. […]
Antisense encapsulation was typically assessed by dual label ([^3H]-antisense and [^14C]-lipid) liquid scintillation counting after gel filtration chromatography to separate the free and encapsulated antisense. Antisense encapsulation was evaluated by summing the total [^3H]-antisense radioactivity associated with the lipid peak and dividing by the total [^3H]-antisense radioactivity. […]

ICAM-1 gene = experiment: Ear inflammation model (DNFB contact sensitivity); assay type: in vivo, ICR mice; conditions: lipid-encapsulated antisense, i.v. 20-30 mg/kg 15 min after DNFB, 24 hours
Protocol: Mice were sensitized by applying 25 μL of 0.5% 2,4-dinitro-1-fluorobenzene (DNFB) in acetone: olive oil (4:1) to the shaved abdominal wall for two consecutive days. Four days after the second application, mice were challenged on the dorsal surface of the left ear with 10 μL of 0.2% DNFB in acetone:olive oil (4:1). Mice received no treatment on the contralateral (right) ear. In some cases, control mice received 10 μL of vehicle on the dorsal surface of the left ear.
Ear thickness was measured immediately prior to ear challenge, and at various time intervals after DNFB challenge, using an engineer's micrometer (Mitutoyo, Tokyo, Japan). Increases in ear thickness measurements were determined by subtracting the pre-challenge from post-challenge measurements.
Inflamed mice were treated at the time of ear challenge with a 30 mg/kg i.v. dose of either HBS (no oligo), EPC:CHOL liposomes with entrapped PS-3082 (identified as AS 1000), POPC:CHOL:DODAP:PEG-CerC14 with entrapped PS-3082 (identified as AS 4100), or DSPC:CHOL:DODAP:PEG-CerC14 with entrapped PS-3082 (identified as AS 4200). Ear swelling was measured at 24 hours after initiating inflammation using an engineer's micrometer.
Antisense Sample Preparation: Antisense was encapsulated using the standard methods of Examples 5-9, using the phosphodiester modification. […]

[2] = system: MDA-MB-453 human breast carcinoma; experiment: Tumor window model, human breast tumor; assay type: in vivo, mouse; conditions: i.v. 10 mg/kg/administration, 3 administrations/week
Description: The human breast carcinoma line MDA-MB-453 was implanted in a mouse tumor window model according to the method of Wu, N. Z., Da, D., Rudoll, T. L., Needham, D., Whorton, R. & Dewhirst, M. W. 1993. Increased microvascular permeability contributes to preferential accumulation of Stealth liposomes in tumor tissue. Cancer Research 53: 3765-3770; and Dewhirst, M. W., Tso, C. Y., Oliver, R., Gustafson, C. S., Secomb, T. W. & Gross, J. F. 1989. Morpholigic and hemodynamic comparison of tumor and healing normal tissue microvasculature. Int. J. Radiat. Oncol. Biol. Phys. 17: 91-99. See also Dewhirst, M W., and Needham, D. 1995. Extravasation of Stealth Liposomes into Tumors: Direct Measurement of Accumulation and Vascular Permeability using a Skin Flap Window Chamber. In Stealth Liposomes (Eds. Lasic, D. and Martin, F.) CRC Press.
In vivo efficacy evaluation: When the tumor in the window has reached a diameter of 2-3 mm, treatment with free or TCS-encapsulated US3 oligonucleotide is initiated. Treatment consists of a 200 ul intravenous administration (tail vein) of either free US3 or TCS-encapsulated US3 on a 3 administrations/week schedule and an antisense dose of 10 mg/kg/administration. Tumor size is monitored 3 times per week by microscopy.

**Q.** Which pKa (pKa of amino lipid) does the source give for `CCCCCCCC/C=C\CCCCCCCC(=O)OCC(CN(C)C)OC(=O)CCCCCCC/C=C\CCCCCCCC` (stereo not drawn) [DODAP, 1,2-dioleoyloxy-3-dimethylaminopropane] here?
**A.** The pKa was 6.53.

**Q.** Which “final (administration ready) drug:lipid ratios” value ([1]; citrate varied, DSPC:CHOL:DODAP:PEG-CerC14 25:45:20:10) does the source give for “PO-2302: human ICAM-1 phosphodiester antisense GCCCAAGCTGGCATCCGTCA (SEQ ID No 2) (DNA, all phosphodiester, methylation of C not given here)” here?
**A.** Its value is “greater than 10 % by weight”.

**Q.** For “PO-3082: murine ICAM-1 phosphodiester antisense TGCATCCCCCAGGCCACCAT (SEQ ID No 1) (DNA, all phosphodiester, methylation of C not given here)”, which “reduction of the degree of inflammation” value (ICAM-1 gene) is on record?
**A.** Its value is about 85%.

**Q.** For “PS-3082: murine ICAM-1 phosphorothioate antisense TGCATCCCCCAGGCCACCAT (SEQ ID No 1) (DNA, all phosphorothioate, methylation of C not given here)”, which “reduction of the degree of inflammation” value (ICAM-1 gene) is on record?
**A.** The value was “around 70%”.

**Q.** Which “effect on tumor growth” value [2] does the source give for “US3: anti-human erb-B-2 antisense GGT GCT CAC TGC GGC (SEQ ID No 3) (antisense GGTGCTCACTGCGGC; all phosphorothioate, sugars by position and methylation of C not given here)” here?
**A.** The value was “ineffective at inhibiting tumor growth”.

**Q.** Which encapsulation efficiency ([1]; 20 mM citrate, FIG. 20) does the source give for “VEGF-R1: human VEGF-R 1 ribozyme GAGUUGCUGAUGAGGCCGAAAGGCCGAAAGUCUG (SEQ ID No 16) (GAGUUGCUGAUGAGGCCGAAAGGCCGAAAGUCUG; chemistry not fully specified)” here?
**A.** Its encapsulation efficiency is “over 50%”.
